The record followed here is patent US11389415B2, “Methods of regulating cannabinoid receptor activity-related disorders and diseases” (The United States of America as represented by the …, priority 2012, dated 2022).

The test system of data set [1] is HepG2 cells. In words: Cell cycle analysis by flow cytometry in HepG2 cells. It is filed as cell-based, human. The following applies: HepG2, 1 μM. The protocol: Cell Cycle Analysis. Cell cycle distributions were performed by flow cytometry on propidium iodide-stained nuclei prepared by the NIM technique. DNA histograms of at least 10,000 cells acquired on a Becton-Dickinson FACScanto II (BD Biosciences, San Jose, Calif.) were deconvoluted using the Multicycle program (Phoenix Flow Systems) for estimates of the percentage of cells in the G0/1, S, and G2+M phases of the cell cycle. Debris and doublets were removed from the analysis by software algorithms.

Data set [2] is described as follows: MNF accumulation in vivo in C6 glioma tumors. The following applies: C6 xenograft tumors at completion of study. Details: species or system mouse. The protocol: Evaluation of MNF accumulation in vivo in C6 glioma tumors. The accumulation of MNF in vivo in C6 tumor xenografts in athymic mice was assessed in comparison with vehicle-treated tumor-bearing animals. The frozen tumor samples were thawed, and then homogenized. The concentration of MNF and its metabolites was determined by HPLC followed by LC-MS/MS. In brief, the assays were conducted using an Eclipse XDB-C18 guard column (4.6 mm×12.5 mm) and an Atlantis HILIC column (150×2.1 mm ID, […]). The mobile phase consisted of water containing 0.1% formic acid as component A and acetonitrile as component B. A linear gradient was run as follows: 0 minutes 95% B; 5 minutes 60% B; 6 minutes 80% B; 10 minutes 95% B at a flow rate of 1.0 ml/minute. The total run time was 15 minutes per sample. Identification and quantification of the analytes was accomplished using an API-4000 LC-MS/MS in positive electrospray ionization mode and data was acquired employing multiple reaction monitoring (MRM) and the following MRM transitions: MNF (369-200); MNF-Gluc (545-200). Tumor tissues from vehicle-injected mice were used as controls.

In data set [3] the test system is HepG2 cells. Nature of the data set: [3H]-Thymidine incorporation assay in HepG2 cells. It is filed as cell-based, human. The note with it: 1 μM, 24 h. The essentials:
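HepG2 and U87MG cells (~50,000/well) were treated 24 hours at 37° C with test compounds in serum-free medium, then labelled 16 hours with 1 μCi [3H]-thymidine. Cells were lysed in 0.1N NaOH and incorporation measured by scintillation counting, expressed as CPM relative to control cells.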
(In general: Incorporation of labelled thymidine or its analogues reports DNA synthesis.)

Another data set concerns the target T1, CYP2D6 (Homo sapiens, UniProt P10635).
T1 construct: from tissue; host or cells: human liver microsomes
Nature of the data set: CYP inhibition in human liver microsomes, CYP2D6. The note with it: 10 μM, 20 minutes, 37° C. The data set is classed as in vitro ADME. Here is the method: Incubations containing known CYP inhibitors were also included as positive controls. Formation of the model substrate metabolites was measured by LC-MS/MS and compared to control incubations (incubation of substrates with microsomes and cofactors, no test articles or inhibitors). CYP activity in presence of test compound (MNF) that was less than 70% of control was considered significant. MNF (10 μM) inhibited CYP2D6 and CYP3A4 to less than 70% of the control. Further, the primary metabolite was determined to be O-demethylated-MNF. These studies indicate that MNF alters the metabolism of other drugs or endogenous compounds that are substrates for CYP2D6 and/or CYP3A4 isoforms, when present in the plasma or liver at 10 μM or higher.
On the technique in general: Liver microsomes are a subcellular fraction often used to study metabolism.

The test system of a further data set is rat C6 glioma xenograft. In words: C6 tumor xenograft in mice, tumor growth. It is filed as in vivo, mouse. Here is the method: C6 tumor xenograft in mice. In order to assess the ability of MNF to induce regression of tumor growth in vivo, rat C6 glioma cells were trypsin-collected at confluency and were used to generate tumor xenografts. Athymic female nude mice (SWISS nu+/nu+) were obtained from Charles Rivers (L'Arbresle, France) and maintained under pathogen-free conditions with a 12 hours light/12 hours dark cycle. Animals were fed ad libitum with normal chow (supplier). Athymic nude mice were inoculated subcutaneously with […] containing 0.5×10^6 C6 glioma cells in the left flank and then were randomly divided into two groups of 10 animals each. Starting 3 days after cell inoculation, mice received daily intraperitoneal injection (10 μl·g-1 body weight) of vehicle or MNF (2 mg·kg-1) in 100 μM ascorbic acid in saline (vehicle) five days a week for 19 days. Animal survival was monitored daily, and tumor size was determined with the use of a caliper to measure the length (a) and width (b) and estimated as 4/3π×rl2×r2, where rl is the smaller and r 2 the larger radius. […] The mice were euthanized by cervical […], and tumor masses were removed, weighed and washed with cold PBS before being snap-frozen in liquid nitrogen. A second set of studies with 8-9 animals in both groups was repeated.

SMILES strings stand for the structures. “Also recorded” adds a separate entry of the source.

T1 sequence (P10635 whole entry): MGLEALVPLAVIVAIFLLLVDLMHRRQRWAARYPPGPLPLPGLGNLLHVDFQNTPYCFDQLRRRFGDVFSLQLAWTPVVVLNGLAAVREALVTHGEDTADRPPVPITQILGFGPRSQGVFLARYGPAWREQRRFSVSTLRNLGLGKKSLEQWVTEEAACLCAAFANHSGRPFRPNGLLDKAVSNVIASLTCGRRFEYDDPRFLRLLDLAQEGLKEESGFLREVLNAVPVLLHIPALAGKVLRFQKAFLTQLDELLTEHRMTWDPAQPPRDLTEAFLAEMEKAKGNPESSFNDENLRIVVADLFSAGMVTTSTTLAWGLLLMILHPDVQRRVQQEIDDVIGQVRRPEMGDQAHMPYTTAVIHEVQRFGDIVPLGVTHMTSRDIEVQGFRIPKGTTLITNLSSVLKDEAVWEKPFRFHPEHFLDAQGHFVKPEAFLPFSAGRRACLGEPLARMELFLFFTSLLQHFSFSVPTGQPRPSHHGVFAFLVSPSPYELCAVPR

Regarding `COc1ccc(C[C@@H](C)NC[C@H](O)c2cc(O)cc(O)c2)c2ccccc12` [(R,R′)-MNF, (R,R′)-4′-methoxy-1-naphthylfenoterol], the G2/M-phase cell population with HepG2 cells [1] (after 6 h (control 13.8±1.1%)) came out at 10.2±0.9%; with HepG2 cells [1] (after 12 h) it was 14.6±1.8%; in the data set with HepG2 cells [1] (after 24 h) it was 8.9±1.6%. Also, the results for the S-phase cell population in the data set with HepG2 cells [1] (after 6 h (control 34.7±0.3%)), in the data set with HepG2 cells [1] (after 12 h) and in the data set with HepG2 cells [1] (after 24 h) were 34.1±0.9%, 13.7±1.2% and 24.6±4.2%, respectively. Besides, the “number of sub-G1 events, maximum” value in the data set on HepG2 cells [1] (by 12 hours) was 21.5±0.7%. Moreover, the “tissue concentration of MNF in tumor” value in data set [2] (cohort 1, n=9) is 141.0±52.5 ng/ml/g tissue; in data set [2] (cohort 2, n=7), 214.4±65.5 ng/ml/g tissue. Also, the “% Change in HepG2 cells ([3H]-thymidine incorporation)” value with HepG2 cells [3] is listed as −59.4%. For the same compound, the “CYP2D6 activity in presence of test compound” value at CYP2D6 was “less than 70 % of the control”. Besides, the “average AUC±SEM (tumor volume over time, FIG. 19B)” value in the data set with rat C6 glioma xenograft (C6 tumor-bearing female nude mice, 2 mg/kg, five days a week for 19 days, n=19 (vehicle 5450±518)) amounted to 3217±265. The “tumor volume compared with vehicle-treated group” value in the data set with rat C6 glioma xenograft (C6 xenograft in nude mice, 2 mg/kg intraperitoneal) is given as “Significant reduction in mean tumor volumes; also recorded: Significant reduction in tumor volume”.
